In patent publication US10577315B2, “Compositions and methods for treatment of prostate carcinoma” (Pellficure Pharmaceuticals, Inc., priority 2014, dated 2020):

Tests used:
[1] = tested on: H2B-GFP-PTEN-P2 tumor cells; test: In vivo effect combined with castration in the pseudo-orthotopic chamber model for prostate cancer; set-up: species or system mouse; conditions: orally once a day in sesame seed oil, equimolar to 1 mg/kg plumbagin, castrated male nu/nu mice
Description: A syngeneic pseudo-orthotopic in vivo model was developed to study the early steps of prostate cancer. Chambers are surgically placed into the dorsal skinfold of male mice. Briefly, male mice (25-30 g body weight) are anesthetized and placed on a heating pad. Two symmetrical titanium frames are implanted into the dorsal skinfold. A circular layer is excised from one of the skin layers. The underlying muscle and subcutaneous tissues are covered with a glass coverslip incorporated in one of the frames. After a recovery period of 2-3 days, stoma tissue and tumor cells are carefully placed in the chamber.
Male Nude mice (25-35 g body weight) are anesthetized (7.3 mg ketamine hydrochloride and 2.3 mg xylazine/100 g body weight, i.p.) and placed on a heating pad. Two symmetrical titanium frames are implanted into a dorsal skinfold, so as to sandwich the extended double layer of skin. […]
Liquid overlay plates are generated using 1% Agarose melted in DMEM that is added to round-bottom 96-well plates (50 ul/well). […] Viability is determined using Trypan blue. […]. The size of the implanted spheroid can be determined precisely to minimize variations between animals. […]
Fluorescence microscopy is performed using a Mikron Instrument Microscope equipped with epi-illuminator and video-triggered stroboscopic illumination from a xenon arc (MV-7600, EG&G). […]

[2] = tested on: PTEN-P2/GFP prostate cancer cells; test: Effect of 1,4-naphthoquinone analogs on PTEN-P2/GFP cell proliferation (WST-1 cell viability, 24 h); type: cell-based; conditions: Mus musculus, WST-1, medium with 10% FBS and DHT, read-out: PTEN-P2/GFP cell proliferation, percent of control
Procedure, shortened: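 PTEN-P2/GFP cells, 8000/well, in medium with 10% FBS and 10^−8M DHT, dosed next day with increasing analog concentrations (constant DMSO) for 24 h at 37 °C, 5% CO2. Viability read by WST-1 after 3 h at 37 °C, OD at 460 nm.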

| Compound | in vivo efficiency of combination treatment with castration compared with plumbagin and castration (FIG. 9) [1] | activity at 1 µM ([2]; 1 μM) | activity at 2 µM ([2]; 2 μM) | activity at 3 µM ([2]; 3 μM) | activity at 4 µM ([2]; 4 μM) | activity at 5 µM ([2]; 5 μM) | activity at 6 µM ([2]; 6 μM) | activity at 7 µM ([2]; 7 μM) | activity at 10 µM ([2]; 10 μM) | activity at 25 µM ([2]; 25 μM) | activity at 50 µM ([2]; 50 μM) |
| --- | --- | --- | --- | --- | --- | --- | --- | --- | --- | --- | --- |
| O=C1C=C(Nc2ccccc2)C(=O)c2ccccc21 [Analog F35, 2-(phenylamino)naphthalene-1,4-dione] | more efficient in vivo than treatment with plumbagin and castration | – | – | – | – | – | – | – | – | – | – |
| COc1cccc2c1C(=O)C=CC2=O [Analog F51, 5-methoxy-1,4-naphthoquinone] | more efficient in vivo than treatment with plumbagin and castration | 103% | 104% | 105% | 105% | 103% | 94% | 85.7% | 43.4% | 9.58% | 10.3% |
